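Interpolation was linear, between the two tested concentrations surrounding the appropriate level; five concentrations were tested over 48 hours in 96-well plates. The concentration for full growth arrest is given as TGI.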
What was measured:
Test in all cases: inhibition of tumour cell growth, NCI panel, 48 h
[1] = system: OVCAR-3 ovarian
[2] = system: HOP-18 NSCLC
[3] = system: SK-MEL-28 melanoma
[4] = system: NCI-H226 lung
[5] = system: UACC-257 melanoma
[6] = system: HCT-116 colon
[7] = system: HOP-62 NSCLC
[8] = system: SK-OV-3 ovarian
[9] = system: NCI-H460 lung
[10] = system: DLD-1 colon
[11] = system: SN12C renal
[12] = system: NCI-H23 lung
[13] = system: OVCAR-8 ovarian
[14] = system: UO-31 renal
[15] = system: DMS 114 small cell lung
[16] = system: MALME-3M melanoma
[17] = system: UACC-62 melanoma
[18] = system: RPMI-8226 leukemia
[19] = system: CCRF-CEM leukemia
[20] = system: RXF 393 renal
[21] = system: TK-10 renal
[22] = system: HT29 colon
[23] = system: HCT-15 colon
[24] = system: SNB-75 CNS
[25] = system: DMS 273 small cell lung
[26] = system: NCI-H522 lung
[27] = system: SF-295 CNS
[28] = system: LOX IMVI melanoma
[29] = system: K-562 leukemia
[30] = system: ACHN renal
[31] = system: SK-MEL-5 melanoma
[32] = system: U251 CNS
[33] = system: M19-MEL melanoma
[34] = system: IGROV1 ovarian
[35] = system: SW-620 colon
[36] = system: EKVX NSCLC
[37] = system: KM12 colon
[38] = system: SNB-19 CNS
[39] = system: SF-539 CNS
[40] = system: 786-0 renal
[41] = system: KM20L2 colon
[42] = system: COLO 205 colon
[43] = system: HL-60(TB) leukemia
[44] = system: A549 NSCLC
[45] = system: M14 melanoma
[46] = system: MOLT-4 leukemia
[47] = system: XF 498 CNS
[48] = system: SK-MEL-2 melanoma
[49] = system: OVCAR-4 ovarian
[50] = system: HCC-2998 colon
[51] = system: SF-268 CNS
[52] = system: CAKI-1 renal
[53] = system: SR leukemia
[54] = system: A498 renal
[55] = system: RXF-631 renal
[56] = system: HOP-92 NSCLC
[57] = system: LXFL 529 NSCLC
[58] = system: OVCAR-5 ovarian
[59] = system: SNB-78 CNS

O=C(O)c1ccccc1N=Nc1ccc2oc(=O)c(C(=O)Nc3ccccc3)cc2c1
TGI [1]: 70.4 µM | TGI [2]: > 100 µM | TGI [3]: > 100 µM | TGI [4]: > 100 µM | TGI [5]: 59.4 µM | TGI [6]: > 100 µM | TGI [7]: 97.7 µM | TGI [8]: > 100 µM | TGI [9]: > 100 µM | TGI [10]: > 100 µM | TGI [11]: > 100 µM | TGI [12]: > 100 µM | TGI [13]: > 100 µM | TGI [14]: > 100 µM | TGI [15]: 76.9 µM | TGI [16]: 70.3 µM | TGI [17]: 71.1 µM | TGI [18]: > 100 µM | TGI [19]: > 100 µM | TGI [20]: > 100 µM | TGI [21]: > 100 µM | TGI [22]: > 100 µM | TGI [23]: > 100 µM | TGI [24]: 98.3 µM | TGI [25]: > 100 µM | TGI [26]: > 100 µM | TGI [27]: > 100 µM | TGI [28]: > 100 µM | TGI [29]: > 100 µM | TGI [30]: > 100 µM | TGI [31]: 76.8 µM | TGI [32]: > 100 µM | TGI [33]: > 100 µM | TGI [34]: > 100 µM | TGI [35]: > 100 µM | TGI [36]: > 100 µM | TGI [37]: > 100 µM | TGI [38]: > 100 µM | TGI [39]: > 100 µM | TGI [40]: > 100 µM | TGI [41]: 83.9 µM | TGI [42]: > 100 µM | TGI [43]: 66.9 µM | TGI [44]: > 100 µM | TGI [45]: > 100 µM | TGI [46]: > 100 µM | TGI [47]: > 100 µM

Cc1ncc(CCl)c(CCl)c1O
TGI [48]: > 100 µM | TGI [3]: > 100 µM | TGI [4]: > 100 µM | TGI [6]: > 100 µM | TGI [49]: > 100 µM | TGI [7]: > 100 µM | TGI [8]: > 100 µM | TGI [10]: > 100 µM | TGI [50]: > 100 µM | TGI [11]: > 100 µM | TGI [12]: > 100 µM | TGI [14]: > 100 µM | TGI [51]: > 100 µM | TGI [52]: > 100 µM | TGI [15]: > 100 µM | TGI [16]: > 100 µM | TGI [17]: > 100 µM | TGI [18]: > 100 µM | TGI [19]: > 100 µM | TGI [53]: > 100 µM | TGI [54]: > 100 µM | TGI [55]: > 100 µM | TGI [24]: > 100 µM | TGI [25]: > 100 µM | TGI [26]: > 100 µM | TGI [56]: > 100 µM | TGI [29]: > 100 µM | TGI [30]: > 100 µM | TGI [33]: > 100 µM | TGI [34]: > 100 µM | TGI [57]: > 100 µM | TGI [39]: > 100 µM | TGI [40]: > 100 µM | TGI [42]: > 100 µM | TGI [43]: > 100 µM | TGI [45]: > 100 µM | TGI [46]: > 100 µM | TGI [47]: > 100 µM

CC1CCCc2c1c1ccc3c(O)cccc3c1oc2=O (centres undefined)
TGI [48]: > 100 µM | TGI [1]: > 100 µM | TGI [2]: > 100 µM | TGI [58]: > 100 µM | TGI [3]: > 100 µM | TGI [4]: > 100 µM | TGI [5]: > 100 µM | TGI [6]: > 100 µM | TGI [49]: 91.3 µM | TGI [7]: 54.1 µM | TGI [8]: 61.6 µM | TGI [9]: > 100 µM | TGI [10]: > 100 µM | TGI [50]: > 100 µM | TGI [11]: > 100 µM | TGI [12]: > 100 µM | TGI [13]: > 100 µM | TGI [14]: > 100 µM | TGI [51]: 70.8 µM | TGI [52]: > 100 µM | TGI [15]: 76.3 µM | TGI [16]: > 100 µM | TGI [17]: > 100 µM | TGI [18]: > 100 µM | TGI [19]: > 100 µM | TGI [20]: 73.2 µM | TGI [21]: 71.3 µM | TGI [22]: > 100 µM | TGI [59]: > 100 µM | TGI [53]: > 100 µM | TGI [23]: > 100 µM | TGI [24]: 21.8 µM | TGI [25]: > 100 µM | TGI [26]: 55.8 µM | TGI [27]: 33.8 µM | TGI [28]: > 100 µM | TGI [29]: > 100 µM | TGI [30]: > 100 µM | TGI [32]: > 100 µM | TGI [33]: > 100 µM | TGI [34]: > 100 µM | TGI [35]: > 100 µM | TGI [36]: 85.9 µM | TGI [37]: > 100 µM | TGI [57]: > 100 µM | TGI [38]: > 100 µM | TGI [40]: 64.7 µM | TGI [41]: > 100 µM | TGI [42]: > 100 µM | TGI [43]: > 100 µM | TGI [44]: > 100 µM | TGI [45]: > 100 µM | TGI [46]: > 100 µM | TGI [47]: > 100 µM

Reference: PubChem BioAssay (NCI)
